US7138361B2, “Herbicidal heterocycles” (E. I. du Pont de Nemours and Company, priority 2000, dated 2006)

Assays:
Assay type in all cases: in vivo
Nightshade = experiment: Test C preemergence; conditions: scale 0 to 100, 0 no effect, 100 complete control
Source text: (§1) Seeds of plant species selected from bermudagrass (Cynodon dactylon), Surinam grass (Brachiaria decumbens), cocklebur (Xanthium strumarium), corn (Zea mays), crabgrass (Digitaria sanguinalis), woolly cupgrass (Eriochloa villosa), giant foxtail (Setaria faberii), goosegrass (Eleusine indica), johnsongrass (Sorghum halepense), kochia (Kochia scoparia), lambsquarters (Chenopodium album), morningglory (Ipomoea hederacea), yellow nutsedge (Cyperus esculentus), pigweed (Amaranthus retroflexus), common ragweed (Ambrosia elatior), soybean (Glycine max) and velvetleaf (Abutilon theophrasti) were planted and treated preemergence with test chemicals formulated in a non-phytotoxic solvent mixture which included a surfactant.
(§2) At the same time, plants selected from these crop and weed species and also winter barley (Hordeum vulgare), blackgrass (Alopecurus myosuroides), canary grass (Phalaris minor), chickweed (Stellaria media), downy brome (Bromus tectorum), green foxtail (Setaria viridis), Italian ryegrass (Lolium multiflorum), wheat (Triticum aestivum), wild oat (Avena fatua) and windgrass (Apera spica-venti) were treated with postemergence applications of some of the test chemicals formulated in the same manner. Plants ranged in height from 2 to 18 cm (1- to 4-leaf stage) for postemergence treatments. Plant species in the flooded paddy test consisted of rice (Oryza saliva), smallflower flatsedge (Cyperus difformis), duck salad (Heteranthera limosa) and barnyardgrass (Echinochloa crus-galli) grown to the 2-leaf stage for testing. Treated plants and controls were maintained in a greenhouse for 12 to 14 days, after which time all species were compared to controls and visually evaluated. Plant response ratings, summarized in Table C, are based on a scale of 0 to 100 where 0 is no effect and 100 is complete control. A dash (-) response means no test result.

[1] = system: johnsongrass (Sorghum halepense); experiment: Test C preemergence; conditions: for Plant response rating, Johnsongrass: scale 0 to 100, 0 no effect, 100 complete control; for Plant response rating (0 to 100), Johnsongrass: visual evaluation after 12 to 14 days
Source text: as §1, §2

[2] = system: woolly cupgrass (Eriochloa villosa); experiment: Test C preemergence; conditions: for Plant response rating, Cupgrass, Woolly: scale 0 to 100, 0 no effect, 100 complete control; for Plant response rating (0 to 100), Cupgrass, Woolly: visual evaluation after 12 to 14 days
Source text: as §1, §2

[3] = system: common ragweed (Ambrosia elatior); experiment: Test C preemergence; conditions: preemergence; for Plant response rating (0 to 100), Ragweed, Common: Rate 500 g/ha, visual evaluation after 12 to 14 days; for Plant response rating, Ragweed, Common: scale 0 to 100, 0 no effect, 100 complete control
Source text: as §1, §2

[4] = system: cocklebur (Xanthium strumarium); experiment: Test C preemergence; conditions: for Plant response rating, Cocklebur: scale 0 to 100, 0 no effect, 100 complete control; for Plant response rating (0 to 100), Cocklebur: visual evaluation after 12 to 14 days
Source text: as §1, §2

[5] = system: velvetleaf (Abutilon theophrasti); experiment: Test C preemergence; conditions: preemergence; for Plant response rating (0 to 100), Velvetleaf: Rate 500 g/ha, visual evaluation after 12 to 14 days; for Plant response rating, Velvetleaf: scale 0 to 100, 0 no effect, 100 complete control
Source text: as §1, §2

soybean (Glycine max) = experiment: Test C preemergence; conditions: preemergence; for Plant response rating (0 to 100), Soybean: Rate 500 g/ha, visual evaluation after 12 to 14 days; for Plant response rating, Soybean: scale 0 to 100, 0 no effect, 100 complete control
Source text: as §1, §2

[6] = system: Surinam grass (Brachiaria decumbens); experiment: Test C preemergence; conditions: for Plant response rating, Surinam grass: scale 0 to 100, 0 no effect, 100 complete control; for Plant response rating (0 to 100), Surinam grass: visual evaluation after 12 to 14 days
Source text: as §1, §2

[7] = system: pigweed (Amaranthus retroflexus); experiment: Test C preemergence; conditions: preemergence; for Plant response rating (0 to 100), Pigweed: Rate 500 g/ha, visual evaluation after 12 to 14 days; for Plant response rating, Pigweed: scale 0 to 100, 0 no effect, 100 complete control
Source text: as §1, §2

[8] = system: bermudagrass (Cynodon dactylon); experiment: Test C preemergence; conditions: for Plant response rating, Bermudagrass: scale 0 to 100, 0 no effect, 100 complete control; for Plant response rating (0 to 100 where 0 is no effect and 100 is complete control), Bermudagrass: visual evaluation after 12 to 14 days
Source text: as §1, §2

kochia (Kochia scoparia) = experiment: Test C preemergence; conditions: for Plant response rating, Kochia: scale 0 to 100, 0 no effect, 100 complete control; for Plant response rating (0 to 100), Kochia: visual evaluation after 12 to 14 days
Source text: as §1, §2

[9] = system: giant foxtail (Setaria faberii); experiment: Test C preemergence; conditions: for Plant response rating, Foxtail, Giant: scale 0 to 100, 0 no effect, 100 complete control; for Plant response rating (0 to 100), Foxtail, Giant: visual evaluation after 12 to 14 days
Source text: as §1, §2

corn (Zea mays) = experiment: Test C preemergence; conditions: for Plant response rating, Corn: scale 0 to 100, 0 no effect, 100 complete control; for Plant response rating (0 to 100), Corn: visual evaluation after 12 to 14 days
Source text: as §1, §2

Sunflower = experiment: Test C preemergence; conditions: Rate 500 g/ha, visual evaluation after 12 to 14 days
[10] = system: crabgrass (Digitaria sanguinalis); experiment: Test B postemergence; conditions: 13 to 15 days
Method in brief: (§3)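 Preemergence: seeds planted and treated with test chemicals in non-phytotoxic solvent with surfactant; postemergence on plants 2–18 cm (1- to 4-leaf stage). Kept in greenhouse 13–15 days, then visually rated against controls on a 0 (no effect) to 100 (complete control) scale.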

[11] = system: cocklebur (Xanthium strumarium); experiment: Test B postemergence; conditions: 13 to 15 days
Method in brief: as §3

[12] = system: lambsquarters (Chenopodium album); experiment: Test B postemergence; conditions: 13 to 15 days
Method in brief: as §3

wild oat (Avena fatua) = experiment: Test B postemergence; conditions: 13 to 15 days
Method in brief: as §3

[13] = Rate 125 g/ha, scale 0 (no effect) to 100 (complete control)
[14] = Rate 500 g/ha, scale 0 to 100, 0 is no effect, 100 is complete control

CC1(c2ccn(C3SCN(c4cccc(OC(F)(F)F)c4)C3=O)n2)CC1 (stereo not shown) [Compound 63]
20: Plant response rating, Cupgrass, Woolly ([2]; Rate 62 g/ha) | Plant response rating, Surinam grass ([6]; Rate 62 g/ha) | Plant response rating, Surinam grass ([6]; preemergence, Rate 125 g/ha) | Plant response rating, Foxtail, Giant ([9]; Rate 62 g/ha) | Plant response rating (0 to 100), Corn (corn (Zea mays); preemergence, Rate 250 g/ha)
50: Plant response rating, Ragweed, Common ([3]; Rate 125 g/ha) | Plant response rating, Ragweed, Common ([3]; Rate 250 g/ha) | Plant response rating (0 to 100), Velvetleaf [5] | Plant response rating, Cocklebur [11, 14]
100: Plant response rating (0 to 100), Johnsongrass ([1]; preemergence, Rate 250 g/ha) | Plant response rating (0 to 100), Johnsongrass ([1]; preemergence, Rate 500 g/ha) | Plant response rating (0 to 100), Cupgrass, Woolly ([2]; preemergence, Rate 500 g/ha) | Plant response rating (0 to 100), Surinam grass ([6]; preemergence, Rate 500 g/ha) | Plant response rating (0 to 100), Pigweed [7] | Plant response rating, Pigweed ([7]; Rate 125 g/ha) | Plant response rating, Pigweed ([7]; Rate 250 g/ha) | Plant response rating, Bermudagrass ([8]; Rate 62 g/ha) | Plant response rating (0 to 100 where 0 is no effect and 100 is complete control), Bermudagrass ([8]; preemergence, Rate 250 g/ha) | Plant response rating (0 to 100 where 0 is no effect and 100 is complete control), Bermudagrass ([8]; preemergence, Rate 500 g/ha) | Plant response rating, Bermudagrass ([8]; preemergence, Rate 125 g/ha) | Plant response rating (0 to 100), Kochia (kochia (Kochia scoparia); preemergence, Rate 250 g/ha) | Plant response rating (0 to 100), Kochia (kochia (Kochia scoparia); preemergence, Rate 500 g/ha) | Plant response rating, Kochia (kochia (Kochia scoparia); preemergence, Rate 125 g/ha) | Plant response rating (0 to 100), Foxtail, Giant ([9]; preemergence, Rate 250 g/ha) | Plant response rating (0 to 100), Foxtail, Giant ([9]; preemergence, Rate 500 g/ha)
30: Plant response rating, Nightshade (Nightshade; Rate 62 g/ha) | Plant response rating (0 to 100), Cocklebur ([4]; preemergence, Rate 250 g/ha) | Plant response rating (0 to 100), Cocklebur ([4]; preemergence, Rate 500 g/ha) | Plant response rating, Velvetleaf ([5]; Rate 250 g/ha)
0: Plant response rating, Johnsongrass ([1]; Rate 62 g/ha) | Plant response rating, Cocklebur ([4]; Rate 62 g/ha) | Plant response rating, Cocklebur ([4]; preemergence, Rate 125 g/ha) | Plant response rating, Velvetleaf ([5]; Rate 125 g/ha) | Plant response rating, Soybean (soybean (Glycine max); Rate 125 g/ha) | Plant response rating, Soybean (soybean (Glycine max); Rate 250 g/ha) | Plant response rating, Corn (corn (Zea mays); Rate 62 g/ha) | Plant response rating, Corn (corn (Zea mays); preemergence, Rate 125 g/ha) | Plant response rating, Crabgrass [10, 13] | Plant response rating, Cocklebur [11, 13] | Plant response rating, Wild Oat (wild oat (Avena fatua); [13]) | Plant response rating, Wild Oat (wild oat (Avena fatua); [14])
70: Plant response rating (0 to 100), Surinam grass ([6]; preemergence, Rate 250 g/ha) | Plant response rating, Kochia (kochia (Kochia scoparia); Rate 62 g/ha)
40: Plant response rating (0 to 100), Soybean (soybean (Glycine max)) | Plant response rating (0 to 100), Corn (corn (Zea mays); preemergence, Rate 500 g/ha)
80: Plant response rating, Lambsquarters [12, 14]
90: Plant response rating (0 to 100), Ragweed, Common [3] | Plant response rating, Foxtail, Giant ([9]; preemergence, Rate 125 g/ha)
60: Plant response rating, Nightshade (Nightshade; Rate 125 g/ha) | Plant response rating, Nightshade (Nightshade; Rate 250 g/ha) | Plant response rating, Johnsongrass ([1]; preemergence, Rate 125 g/ha) | Plant response rating (0 to 100), Cupgrass, Woolly ([2]; preemergence, Rate 250 g/ha) | Plant response rating, Cupgrass, Woolly ([2]; preemergence, Rate 125 g/ha) | Plant response rating (0 to 100), Sunflower (Sunflower) | Plant response rating, Crabgrass [10, 14] | Plant response rating, Lambsquarters [12, 13]

CC1(c2ccn(C3SCN(c4cccc(C(F)(F)F)c4)C3=O)n2)CC1 (stereo not shown) [Compound 64]
100: Plant response rating (0 to 100), Johnsongrass ([1]; preemergence, Rate 500 g/ha) | Plant response rating (0 to 100), Cupgrass, Woolly ([2]; preemergence, Rate 500 g/ha) | Plant response rating (0 to 100), Surinam grass ([6]; preemergence, Rate 500 g/ha) | Plant response rating (0 to 100), Pigweed [7] | Plant response rating, Pigweed ([7]; Rate 125 g/ha) | Plant response rating, Pigweed ([7]; Rate 250 g/ha) | Plant response rating, Bermudagrass ([8]; Rate 62 g/ha) | Plant response rating (0 to 100 where 0 is no effect and 100 is complete control), Bermudagrass ([8]; preemergence, Rate 250 g/ha) | Plant response rating (0 to 100 where 0 is no effect and 100 is complete control), Bermudagrass ([8]; preemergence, Rate 500 g/ha) | Plant response rating, Bermudagrass ([8]; preemergence, Rate 125 g/ha) | Plant response rating (0 to 100), Kochia (kochia (Kochia scoparia); preemergence, Rate 250 g/ha) | Plant response rating (0 to 100), Kochia (kochia (Kochia scoparia); preemergence, Rate 500 g/ha) | Plant response rating, Kochia (kochia (Kochia scoparia); preemergence, Rate 125 g/ha) | Plant response rating (0 to 100), Foxtail, Giant ([9]; preemergence, Rate 250 g/ha)
60: Plant response rating (0 to 100), Sunflower (Sunflower)
90: Plant response rating, Nightshade (Nightshade; Rate 250 g/ha) | Plant response rating (0 to 100), Johnsongrass ([1]; preemergence, Rate 250 g/ha) | Plant response rating (0 to 100), Cupgrass, Woolly ([2]; preemergence, Rate 250 g/ha) | Plant response rating (0 to 100), Ragweed, Common [3] | Plant response rating (0 to 100), Surinam grass ([6]; preemergence, Rate 250 g/ha) | Plant response rating, Kochia (kochia (Kochia scoparia); Rate 62 g/ha)
80: Plant response rating, Ragweed, Common ([3]; Rate 250 g/ha) | Plant response rating, Lambsquarters [12, 14]
0: Plant response rating, Cocklebur ([4]; Rate 62 g/ha) | Plant response rating, Cocklebur ([4]; preemergence, Rate 125 g/ha) | Plant response rating, Velvetleaf ([5]; Rate 125 g/ha) | Plant response rating, Surinam grass ([6]; Rate 62 g/ha) | Plant response rating, Foxtail, Giant ([9]; Rate 62 g/ha) | Plant response rating, Corn (corn (Zea mays); Rate 62 g/ha) | Plant response rating, Corn (corn (Zea mays); preemergence, Rate 125 g/ha) | Plant response rating, Crabgrass [10, 13] | Plant response rating, Wild Oat (wild oat (Avena fatua); [13]) | Plant response rating, Wild Oat (wild oat (Avena fatua); [14])
70: Plant response rating, Nightshade (Nightshade; Rate 125 g/ha) | Plant response rating, Johnsongrass ([1]; preemergence, Rate 125 g/ha) | Plant response rating, Cocklebur [11, 13] | Plant response rating, Cocklebur [11, 14] | Plant response rating, Lambsquarters [12, 13]
20: Plant response rating (0 to 100), Cocklebur ([4]; preemergence, Rate 250 g/ha) | Plant response rating, Velvetleaf ([5]; Rate 250 g/ha) | Plant response rating, Soybean (soybean (Glycine max); Rate 125 g/ha) | Plant response rating, Soybean (soybean (Glycine max); Rate 250 g/ha)
50: Plant response rating, Cupgrass, Woolly ([2]; preemergence, Rate 125 g/ha) | Plant response rating, Ragweed, Common ([3]; Rate 125 g/ha) | Plant response rating (0 to 100), Velvetleaf [5] | Plant response rating, Surinam grass ([6]; preemergence, Rate 125 g/ha) | Plant response rating, Foxtail, Giant ([9]; preemergence, Rate 125 g/ha) | Plant response rating, Crabgrass [10, 14]
40: Plant response rating (0 to 100), Corn (corn (Zea mays); preemergence, Rate 500 g/ha)
30: Plant response rating, Nightshade (Nightshade; Rate 62 g/ha) | Plant response rating, Johnsongrass ([1]; Rate 62 g/ha) | Plant response rating, Cupgrass, Woolly ([2]; Rate 62 g/ha) | Plant response rating (0 to 100), Cocklebur ([4]; preemergence, Rate 500 g/ha) | Plant response rating (0 to 100), Soybean (soybean (Glycine max)) | Plant response rating (0 to 100), Foxtail, Giant ([9]; preemergence, Rate 500 g/ha) | Plant response rating (0 to 100), Corn (corn (Zea mays); preemergence, Rate 250 g/ha)
